Laboratory results reported in ChEMBL document CHEMBL1201862, “PubChem BioAssay data set” (2004).
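How tested: cells in 96-well plates exposed to compound for 48 hours at five concentrations. At the GI50, growth is halved.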 The source made the active and inactive calls. No stated cut-off is given here; in the data, active = GI50 up to about 1.1 µM and inactive = higher.

Columns and labels:
Test in all cases: NCI anticancer screen, dose series, 48 h
OVCAR-8 = tested on: OVCAR-8
A498 = tested on: A498
OVCAR-3 = tested on: OVCAR-3
A549 = tested on: A549
HT-29 = tested on: HT-29
TK-10 = tested on: TK-10
SN12C = tested on: SN12C
SK-OV-3 = tested on: SK-OV-3
786-0 = tested on: 786-0
LOX IMVI = tested on: LOX IMVI
HCT-116 = tested on: HCT-116
EKVX = tested on: EKVX
SR = tested on: SR
CCRF-CEM = tested on: CCRF-CEM
SF-268 = tested on: SF-268
RXF 393 = tested on: RXF 393
SNB-19 = tested on: SNB-19

Measured: GI50

COc1cccc(C2c3cc4c(cc3OC(O)(CO)C2C(=O)O)OCO4)c1.COc1cccc(C2c3cc4c(cc3OC3(O)COC(=O)C23)OCO4)c1 (stereo not drawn)
inactive: OVCAR-8 46 µM | A498 47.4 µM | OVCAR-3 69.5 µM | A549 82.2 µM | HT-29 37.7 µM | TK-10 > 100 µM | SN12C 55.3 µM | SK-OV-3 91.8 µM | 786-0 > 100 µM | LOX IMVI 52.1 µM | HCT-116 46.1 µM | EKVX 42.8 µM | SR 38.8 µM | CCRF-CEM 37.6 µM | SF-268 40.4 µM | RXF 393 33.5 µM

COC(=O)C(c1ccc(OC)cc1)N1C(=O)[C@@H](NC(=O)c2ccccc2)[C@H]1[C@@H](C)O (stereo partly drawn)
inactive: OVCAR-8 > 100 µM | OVCAR-3 > 100 µM | A549 > 100 µM | HT-29 > 100 µM | TK-10 > 100 µM | SN12C > 100 µM | SK-OV-3 > 100 µM | 786-0 > 100 µM | LOX IMVI > 100 µM | HCT-116 > 100 µM | EKVX > 100 µM | SNB-19 > 100 µM | SR > 100 µM | CCRF-CEM > 100 µM | SF-268 > 100 µM | RXF 393 > 100 µM

CCc1cccc(C(C)CC)c1NC(=O)C(=O)C(CC(=O)Nc1ccc(Cl)c(Cl)c1)C(=O)OC (stereo not drawn)
inactive: OVCAR-8 > 100 µM | A498 > 100 µM | OVCAR-3 > 100 µM | A549 63.1 µM | HT-29 76 µM | TK-10 > 100 µM | SN12C > 100 µM | SK-OV-3 > 100 µM | 786-0 80.9 µM | HCT-116 > 100 µM | EKVX > 100 µM | SNB-19 > 100 µM | SR 66.1 µM | CCRF-CEM > 100 µM | SF-268 64 µM | RXF 393 > 100 µM

CCCCCCn1c(SCC)c2ccccc2c1-c1nc(F)nc(F)n1
inactive: OVCAR-8 > 100 µM | OVCAR-3 > 100 µM | A549 > 100 µM | HT-29 > 100 µM | TK-10 > 100 µM | SN12C > 100 µM | SK-OV-3 > 100 µM | 786-0 > 100 µM | LOX IMVI > 100 µM | HCT-116 > 100 µM | EKVX > 100 µM | SNB-19 > 100 µM | SR 88.7 µM | CCRF-CEM 36 µM | SF-268 > 100 µM | RXF 393 > 100 µM

C=CCn1c(=S)sc2c(C(=O)OCC)c3c(C)cc(C)cn3c2c1=O
inactive: OVCAR-8 > 100 µM | OVCAR-3 > 100 µM | A549 > 100 µM | HT-29 > 100 µM | TK-10 > 100 µM | SN12C > 100 µM | SK-OV-3 90.8 µM | 786-0 61.1 µM | LOX IMVI > 100 µM | HCT-116 > 100 µM | EKVX > 100 µM | SNB-19 > 100 µM | SR > 100 µM | CCRF-CEM > 100 µM | SF-268 67.5 µM | RXF 393 > 100 µM

Cc1cc(CC(O)c2ccc(Cl)c(Cl)c2)nc(O)n1 (stereo not drawn)
inactive: OVCAR-8 46.1 µM | A498 53.8 µM | OVCAR-3 32.2 µM | A549 21.8 µM | HT-29 46.9 µM | TK-10 86.9 µM | SN12C 86.3 µM | SK-OV-3 35.2 µM | 786-0 17.6 µM | HCT-116 19.6 µM | EKVX 29.8 µM | SNB-19 30.5 µM | SR 24.7 µM | CCRF-CEM 48.8 µM | SF-268 38.5 µM

Cc1nc(NC(=S)NC(=O)c2ccc(Cl)c(Cl)c2)sc1C(=O)/C=C/c1ccccc1[N+](=O)[O-]
inactive: OVCAR-8 28.1 µM | OVCAR-3 22.1 µM | A549 25.3 µM | HT-29 21.3 µM | TK-10 36.1 µM | SN12C 21.6 µM | SK-OV-3 15.6 µM | 786-0 17.8 µM | LOX IMVI 16.6 µM | HCT-116 20.7 µM | EKVX 32.7 µM | SNB-19 21.1 µM | SR 24.5 µM | CCRF-CEM 22.4 µM | SF-268 39.4 µM | RXF 393 19.4 µM

Nc1ncnc2c1ncn2CCCC(c1ccccc1)P(=O)(O)O (stereo not drawn)
inactive: OVCAR-8 > 100 µM | A498 63 µM | OVCAR-3 > 100 µM | A549 > 100 µM | HT-29 > 100 µM | TK-10 > 100 µM | SN12C > 100 µM | SK-OV-3 > 100 µM | 786-0 > 100 µM | LOX IMVI > 100 µM | HCT-116 > 100 µM | EKVX > 100 µM | SNB-19 > 100 µM | SR > 100 µM | SF-268 > 100 µM | RXF 393 > 100 µM

CN(C)CCCN1N=Nc2cccc3cccc1c23
inactive: OVCAR-8 > 77.3 µM | A498 78.7 µM | OVCAR-3 > 100 µM | A549 > 100 µM | HT-29 33.3 µM | TK-10 > 100 µM | SN12C 63.8 µM | SK-OV-3 > 100 µM | 786-0 17.9 µM | LOX IMVI 41.9 µM | HCT-116 28.8 µM | EKVX > 100 µM | SNB-19 > 100 µM | SR 26.5 µM | CCRF-CEM 27.9 µM | SF-268 > 85.9 µM
